US10100097B2, “GIP-GLP-1 dual agonist compounds and methods” (Zealand Pharma A/S, priority 2012, dated 2018)
Read-outs that look alike come from different tables or passages of the source. Numbered stars: 1 amine (or outer) side, 2 acyl side, 3 side chain; on linkers, the order of the positions; unused ones are H or OH. Square brackets hold non-standard residues; d marks the D form. Side chains are listed from the residue outwards. Peptide text beside a SMILES is read from it. * marks the point of attachment. γGlu = O=C(O)[C@H](CCC(=O)[*:2])N[*:1]; Palmitoyl = CCCCCCCCCCCCCCCC(=O)*; Aib = CC(C)(N)C(=O)O

Assays:
[1] = target: T1, human GIP R (Homo sapiens, UniProt P48546); experiment: Human GIP receptor (GIP R) activity assay, cAMP induction (AlphaScreen cAMP kit); format: cell-based
T1 construct: expressed in transfected cells
T1 sequence (P48546 22-466): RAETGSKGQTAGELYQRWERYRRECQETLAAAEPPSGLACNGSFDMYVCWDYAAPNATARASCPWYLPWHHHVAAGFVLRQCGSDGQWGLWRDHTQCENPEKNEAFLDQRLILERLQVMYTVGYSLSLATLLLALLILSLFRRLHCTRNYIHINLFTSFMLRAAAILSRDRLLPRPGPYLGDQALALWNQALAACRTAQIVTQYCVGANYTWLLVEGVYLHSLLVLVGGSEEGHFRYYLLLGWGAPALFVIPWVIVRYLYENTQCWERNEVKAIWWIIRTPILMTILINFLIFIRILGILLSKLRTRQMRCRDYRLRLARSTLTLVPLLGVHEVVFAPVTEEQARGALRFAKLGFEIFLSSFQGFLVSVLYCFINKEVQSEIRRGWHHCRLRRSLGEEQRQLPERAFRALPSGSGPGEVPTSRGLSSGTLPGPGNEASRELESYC
Method: (§1) Human GIP Receptor (GIP R) and GLP-1 Receptor (GLP-1 R) Activity Assay
(§2) In vitro effects of peptide conjugates of the invention were assessed by measuring the induction of cAMP following stimulation of the respective receptor by GIP, GLP1 or analogues of these, as outlined in the invention, using the AlphaSceen® cAMP kit from Perkin-Elmer according to instructions. Briefly. HEK293 cells expressing the human GIP R or GLP-1 R (stable cell lines generated through transfection of the cDNA for human GIP R or GLP-1 and selection of stable clones) were seeded at 30,000 cells/well in 96-well microtiter plates coated with 0.01% poly-L-lysine, and grown for 1 day in culture in 200 μl growth medium (DMEM, 10% FCS, Penicillin (100 IU/ml), Streptomycin (100 μg/ml)). On the day of analysis, growth medium was removed and the cells were washed once with […] Tyrode's buffer (Tyrode's Salts (9.6 g/1), 10 mM HEPES, pH 7.4). […] The Assay buffer was removed and cells are lysed in 80 μl Lysis buffer (0.1% w/v BSA, 5 mM HEPES, 0.3% v/v Tween-20) per well. From each well 10 μl lysed cells was transferred to a 384-well plate and mixed with 15 μl bead-mix (1 Unit/15 μl anti-cAMP Acceptor Beads, 1 Unit/15 μl Donor Beads, and 1 Unit/15 μl Biotinylated cAMP in Assay Buffer). The plates were mixed and incubated in the dark for an hour at room temperature before measuring using an Envision™ plate reader (Perkin-Elmer).

[2] = target: T2, human GLP-1 R (Homo sapiens, UniProt P43220); experiment: Human GLP-1 receptor (GLP-1 R) activity assay, cAMP induction (AlphaScreen cAMP kit); format: cell-based; details: HEK293 cells expressing the human GLP-1 R, 15 min at 37° C., average values of multiple determinations, read-out: GLP1 R (EC50 in nM)
T2 construct: expressed in transfected cells
T2 sequence (P43220 24-463): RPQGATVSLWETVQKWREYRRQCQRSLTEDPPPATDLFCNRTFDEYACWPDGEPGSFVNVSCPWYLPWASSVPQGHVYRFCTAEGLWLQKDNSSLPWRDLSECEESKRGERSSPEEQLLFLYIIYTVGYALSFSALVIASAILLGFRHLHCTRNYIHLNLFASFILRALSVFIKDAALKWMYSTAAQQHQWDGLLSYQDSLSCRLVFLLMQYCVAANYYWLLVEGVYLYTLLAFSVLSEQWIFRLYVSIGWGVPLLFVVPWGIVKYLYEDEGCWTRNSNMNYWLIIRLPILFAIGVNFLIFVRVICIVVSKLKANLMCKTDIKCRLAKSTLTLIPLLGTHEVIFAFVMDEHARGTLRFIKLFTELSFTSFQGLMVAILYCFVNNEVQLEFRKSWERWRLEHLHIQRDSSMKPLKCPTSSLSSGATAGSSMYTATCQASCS
Method: as §1, §2

[3] = HEK293 cells expressing the human GIP R, cAMP induction, 15 min at 37° C., average values of multiple determinations, read-out: GIP R (EC50 in nM)

EC50 [2] | Compound | also measured
0.11 nM | CCCCCCCCCCCCCCCC(=O)N[C@@H](CCC(=O)NCCCC[C@H](NC(=O)[C@H](CO)NC(=O)[C@H](CC(=O)O)NC(=O)[C@H](CC(C)C)NC(=O)[C@H](Cc1ccc(O)cc1)NC(=O)[C@H](CCCCN)NC(=O)[C@H](CO)NC(=O)[C@H](Cc1ccc(O)cc1)NC(=O)[C@H](CC(=O)O)NC(=O)[C@H](CO)NC(=O)[C@@H](NC(=O)[C@H](Cc1ccccc1)NC(=O)[C@@H](NC(=O)CNC(=O)[C@H](CCC(=O)O)NC(=O)C(C)(C)NC(=O)[C@@H](N)Cc1ccc(O)cc1)[C@@H](C)O)[C@@H](C)O)C(=O)N[C@@H](C)C(=O)N[C@@H](C)C(=O)N[C@@H](Cc1c[nH]cn1)C(=O)N[C@@H](CC(=O)O)C(=O)N[C@@H](Cc1ccccc1)C(=O)N[C@H](C(=O)N[C@@H](CCC(=O)O)C(=O)N[C@@H](Cc1c[nH]c2ccccc12)C(=O)N[C@@H](CC(C)C)C(=O)N[C@@H](CC(C)C)C(=O)N[C@@H](CO)C(=O)N[C@@H](C)C(N)=O)C(C)C)C(=O)O [Compound 45] (H-Y[Aib]EGTFTSDYSKYLDSK([γGlu-Palmitoyl])AAHDFVEWLLSA-NH2) | 
0.041 nM | CCCCCCCCCCCCCCCC(=O)N[C@@H](CCC(=O)NCCCC[C@H](NC(=O)[C@H](CCC(=O)O)NC(=O)[C@H](CC(=O)O)NC(=O)[C@H](CC(C)C)NC(=O)[C@H](Cc1ccc(O)cc1)NC(=O)[C@@H](NC(=O)[C@H](CO)NC(=O)[C@H](Cc1ccc(O)cc1)NC(=O)[C@H](CC(=O)O)NC(=O)[C@H](CO)NC(=O)[C@@H](NC(=O)[C@H](Cc1ccccc1)NC(=O)[C@@H](NC(=O)CNC(=O)[C@H](CCC(=O)O)NC(=O)C(C)(C)NC(=O)[C@@H](N)Cc1ccc(O)cc1)[C@@H](C)O)[C@@H](C)O)[C@@H](C)CC)C(=O)N[C@@H](C)C(=O)N[C@@H](C)C(=O)N[C@@H](CCCCN)C(=O)N[C@@H](CC(=O)O)C(=O)N[C@@H](Cc1ccccc1)C(=O)N[C@H](C(=O)N[C@@H](CCC(=O)O)C(=O)N[C@@H](Cc1c[nH]c2ccccc12)C(=O)N[C@@H](CC(C)C)C(=O)N[C@@H](CCC(=O)O)C(=O)N[C@@H](CO)C(=O)N[C@@H](C)C(N)=O)C(C)C)C(=O)O [Compound 48] (H-Y[Aib]EGTFTSDYSIYLDEK([γGlu-Palmitoyl])AAKDFVEWLESA-NH2) | 
0.11 nM | CCCCCCCCCCCCCCCC(=O)N[C@@H](CCC(=O)NCCCC[C@H](NC(=O)[C@H](CO)NC(=O)[C@H](CC(=O)O)NC(=O)[C@H](CC(C)C)NC(=O)[C@H](Cc1ccc(O)cc1)NC(=O)[C@H](CCCCN)NC(=O)[C@H](CO)NC(=O)[C@H](Cc1ccc(O)cc1)NC(=O)[C@H](CC(=O)O)NC(=O)[C@H](CO)NC(=O)[C@@H](NC(=O)[C@H](Cc1ccccc1)NC(=O)[C@@H](NC(=O)CNC(=O)[C@H](CCC(=O)O)NC(=O)C(C)(C)NC(=O)[C@@H](N)Cc1ccc(O)cc1)[C@@H](C)O)[C@@H](C)O)C(=O)N[C@@H](C)C(=O)N[C@@H](C)C(=O)N[C@@H](Cc1c[nH]cn1)C(=O)N[C@@H](CC(=O)O)C(=O)N[C@@H](Cc1ccccc1)C(=O)N[C@H](C(=O)N[C@@H](CCC(=O)O)C(=O)N[C@@H](Cc1c[nH]c2ccccc12)C(=O)N[C@@H](CC(C)C)C(=O)N[C@@H](CC(C)C)C(=O)N[C@@H](CCCNC(=N)N)C(=O)N[C@@H](C)C(N)=O)C(C)C)C(=O)O [Compound 51] (H-Y[Aib]EGTFTSDYSKYLDSK([γGlu-Palmitoyl])AAHDFVEWLLRA-NH2) | 

The next lines start with the compound.

Compound | EC50 [2] | also measured
CC[C@H](C)[C@H](NC(=O)[C@H](CCCCN)NC(=O)[C@H](CCC(=O)O)NC(=O)[C@H](CC(C)C)NC(=O)[C@H](Cc1ccc(O)cc1)NC(=O)[C@@H](NC(=O)[C@H](CO)NC(=O)[C@H](Cc1ccc(O)cc1)NC(=O)[C@H](CC(=O)O)NC(=O)[C@H](CO)NC(=O)[C@@H](NC(=O)[C@H](Cc1ccccc1)NC(=O)[C@@H](NC(=O)CNC(=O)[C@H](CCC(=O)O)NC(=O)C(C)(C)NC(=O)[C@@H](N)Cc1ccc(O)cc1)[C@@H](C)O)[C@@H](C)CC)[C@@H](C)CC)C(=O)N[C@@H](C)C(=O)N[C@@H](C)C(=O)N[C@@H](CCCCN)C(=O)N[C@@H](CCC(=O)O)C(=O)N[C@@H](Cc1ccccc1)C(=O)N[C@H](C(=O)N[C@@H](CC(N)=O)C(=O)N[C@@H](Cc1c[nH]c2ccccc12)C(=O)N[C@@H](CC(C)C)C(=O)N[C@@H](CC(C)C)C(=O)N[C@@H](C)C(=O)N[C@@H](CCC(N)=O)C(=O)N[C@@H](CCCCN)C(N)=O)C(C)C [Compound 4] (H-Y[Aib]EGTFISDYSIYLEKIAAKEFVNWLLAQK-NH2) |  | EC50 [1]: 0.022 nM
CC[C@H](C)[C@H](NC(=O)[C@H](CO)NC(=O)[C@H](Cc1ccc(O)cc1)NC(=O)[C@H](CC(=O)O)NC(=O)[C@H](CO)NC(=O)[C@@H](NC(=O)[C@H](Cc1ccccc1)NC(=O)[C@@H](NC(=O)CNC(=O)[C@H](CCC(=O)O)NC(=O)C(C)(C)NC(=O)[C@@H](N)Cc1ccc(O)cc1)[C@@H](C)O)[C@@H](C)O)C(=O)N[C@@H](Cc1ccc(O)cc1)C(=O)N[C@@H](CO)C(=O)N[C@@H](CC(=O)O)C(=O)N[C@@H](CCCCN)C(=O)N[C@@H](CCCCN)C(=O)N[C@@H](C)C(=O)N[C@@H](CCC(N)=O)C(=O)N[C@@H](CCCNC(=N)N)C(=O)N[C@@H](C)C(=O)N[C@@H](Cc1ccccc1)C(=O)N[C@H](C(=O)N[C@@H](CC(N)=O)C(=O)N[C@@H](Cc1c[nH]c2ccccc12)C(=O)N[C@@H](CC(C)C)C(=O)N[C@@H](CC(C)C)C(=O)N[C@@H](C)C(=O)NC(C)(C)C(=O)N[C@@H](CCCCN)C(N)=O)C(C)C [Compound 13] (H-Y[Aib]EGTFTSDYSIYSDKKAQRAFVNWLLA[Aib]K-NH2) |  | EC50 [1, 3]: 0.14 nM
CC[C@H](C)[C@H](NC(=O)[C@H](CO)NC(=O)[C@H](Cc1ccc(O)cc1)NC(=O)[C@H](CC(=O)O)NC(=O)[C@H](CO)NC(=O)[C@@H](NC(=O)[C@H](Cc1ccccc1)NC(=O)[C@@H](NC(=O)CNC(=O)[C@H](CCC(=O)O)NC(=O)C(C)(C)NC(=O)[C@@H](N)Cc1ccc(O)cc1)[C@@H](C)O)[C@@H](C)O)C(=O)N[C@@H](Cc1ccc(O)cc1)C(=O)N[C@@H](CC(C)C)C(=O)N[C@@H](CC(=O)O)C(=O)N[C@@H](CCCCN)C(=O)N[C@@H](CCCCN)C(=O)N[C@@H](C)C(=O)N[C@@H](CCC(N)=O)C(=O)N[C@@H](CCCCN)C(=O)N[C@@H](CCC(=O)O)C(=O)N[C@@H](Cc1ccccc1)C(=O)N[C@H](C(=O)N[C@@H](CC(N)=O)C(=O)N[C@@H](Cc1c[nH]c2ccccc12)C(=O)N[C@@H](CC(C)C)C(=O)N[C@@H](CC(C)C)C(=O)N[C@@H](C)C(=O)NC(C)(C)C(=O)N[C@@H](CCCCN)C(N)=O)C(C)C [Compound 19] (H-Y[Aib]EGTFTSDYSIYLDKKAQKEFVNWLLA[Aib]K-NH2) |  | EC50 [1, 3]: 0.015 nM
CC[C@H](C)[C@H](NC(=O)[C@H](CO)NC(=O)[C@H](Cc1ccc(O)cc1)NC(=O)[C@H](CC(=O)O)NC(=O)[C@H](CO)NC(=O)[C@@H](NC(=O)[C@H](Cc1ccccc1)NC(=O)[C@@H](NC(=O)CNC(=O)[C@H](CCC(=O)O)NC(=O)C(C)(C)NC(=O)[C@@H](N)Cc1ccc(O)cc1)[C@@H](C)O)[C@@H](C)O)C(=O)N[C@@H](Cc1ccc(O)cc1)C(=O)N[C@@H](CC(C)C)C(=O)N[C@@H](CC(=O)O)C(=O)N[C@@H](CO)C(=O)N[C@@H](CCCCN)C(=O)N[C@@H](C)C(=O)N[C@@H](C)C(=O)N[C@@H](Cc1c[nH]cn1)C(=O)N[C@@H](CC(=O)O)C(=O)N[C@@H](Cc1ccccc1)C(=O)N[C@H](C(=O)N[C@@H](CCC(=O)O)C(=O)N[C@@H](Cc1c[nH]c2ccccc12)C(=O)N[C@@H](CC(C)C)C(=O)N[C@@H](CC(C)C)C(=O)N[C@@H](CO)C(=O)N[C@@H](C)C(=O)NCC(=O)N1CCC[C@H]1C(=O)N[C@@H](CO)C(=O)N[C@@H](CO)C(=O)NCC(=O)N[C@@H](C)C(=O)N1CCC[C@H]1C(=O)N1CCC[C@H]1C(=O)N1CCC[C@H]1C(=O)N[C@@H](CO)C(N)=O)C(C)C [Compound 55] (H-Y[Aib]EGTFTSDYSIYLDSKAAHDFVEWLLSAGPSSGAPPPS-NH2) | 0.0087 nM | 
